According to patent US10780061B2, “Composition comprising farnesol and use thereof” (Daegu Gyongbuk Institute of Science and Technology, priority 2014, dated 2020):

Key:
[1] = for reference; cited from earlier work
[2] = test system: Myh2a-positive muscle fibers; experiment: Myh2a immunostaining of hind limb muscles, high fat diet (PGC-1α-inhibited) model; type: in vivo, mouse; conditions: high fat diet with 0.5% compound, 3 months
From the text: (§1) To prepare the PGC-1α-inhibited model, 3-month-old mouse (female, body weight of 20 g) is fed with high fat diet, in which fat is increased to 60%, compared to a negative control group, for 5 days (short-term effect) or 3 months (long-term effect). The negative control group is fed with a general diet. Farnesol is mixed in the high fat diet at a content of 0.5% (weight of farnesol/weight of diet). A positive control group is fed with high fat diet containing a type II diabetes drug, metformin at a content of 0.5% (weight of metformin/weight of diet). Mice are fed with the general diet, the high fat diet, and the high fat diet containing farnesol or metformin for 3 months, and then hind limbs are removed to analyze muscle differentiation and mitochondrial enzyme activity.
In FIG. 6C, SD represents a standard diet as a negative control group, HFD represents a high fat diet, and HFD+Farnesol or HFD-metformin represents farnesol or metformin-added HFD, respectively.

PARIS, PGC-1α [3] = experiment: Immunoprecipitation for PGC-1α expression and PARIS-farnesylation, short-term high fat diet; type: in vivo, mouse; conditions: high fat diet with 0.5% compound, 5 days, gastrocnemius muscles
From the text: as §1
The effects of high fat diet and farnesol and metformin on PGC-1α induction by PARIS-farnesylation are evaluated. To analyze effect of short-term high fat diet, mice are fed with the above conditions for 5 days. Immunoblotting of PGC-1α and PARIS in gastrocnemius muscles of the mice is performed.
In this regard, PARIS-farnesylation is normalized to the immunoprecipitated PARIS expression level.

SDH enzyme activity = experiment: SDH staining of hind limb muscles, high fat diet model; type: in vivo, mouse; conditions: high fat diet with 0.5% compound, 3 months
From the text: as §1

PARIS, PGC-1α [4] = experiment: Western blotting of hind limb muscles, high fat diet for 3 months; type: in vivo, mouse; conditions: high fat diet with 0.5% compound
From the text: as §1

Compound | ID50 [1] | percentage of Myh2a-postive muscle fibers [2] | reduction in PARIS-farnesylation by high fat diet (PARIS, PGC-1α [3]) | reduction in PGC-1α expression by high fat diet (PARIS, PGC-1α [3]) | percentage of muscle fibers showing increased SDH enzyme activity (SDH enzyme activity) | decreased PGC-1α expression by high fat diet (PARIS, PGC-1α [4]) | increased PARIS level by high fat diet (PARIS, PGC-1α [4])
CC(=O)Oc1ccccc1C(=O)O [aspirin] | 250 mg/kg | – | – | – | – | – | –
CN(C)C(=N)N=C(N)N [metformin, reference compound] | – | significantly increases | inhibited | inhibited | increased | inhibited | inhibited
